Test results reported in publication PMC7497641, “Neurotropic activity and safety of methylene-cycloalkylacetate (MCA) derivative 3-(3-allyl-2-methylenecyclohexyl) propanoic acid” (ACS Chemical Neuroscience, 2020).

Assays:
[1] = molecular target: T1, Cannabinoid Receptor 1 (CNR1) (Homo sapiens, UniProt P21554); assay: SAFETYscan GPCR cAMP; type: cell-based
T1 construct: host or cells: cAMP Hunter cell lines

[2] = molecular target: Voltage-gated L-type calcium channel (CAV1.2) (Homo sapiens, UniProt Q13936); assay: cell-based
[3] = molecular target: Arginine Vasopressin Receptor 1A (AVPR1A) (Homo sapiens, UniProt P37288); assay: SAFETYscan GPCR Calcium Flux; type: cell-based; conditions: read-out: RC50 (the source's name)
Sequence of Arginine Vasopressin Receptor 1A (AVPR1A) (P37288 whole entry): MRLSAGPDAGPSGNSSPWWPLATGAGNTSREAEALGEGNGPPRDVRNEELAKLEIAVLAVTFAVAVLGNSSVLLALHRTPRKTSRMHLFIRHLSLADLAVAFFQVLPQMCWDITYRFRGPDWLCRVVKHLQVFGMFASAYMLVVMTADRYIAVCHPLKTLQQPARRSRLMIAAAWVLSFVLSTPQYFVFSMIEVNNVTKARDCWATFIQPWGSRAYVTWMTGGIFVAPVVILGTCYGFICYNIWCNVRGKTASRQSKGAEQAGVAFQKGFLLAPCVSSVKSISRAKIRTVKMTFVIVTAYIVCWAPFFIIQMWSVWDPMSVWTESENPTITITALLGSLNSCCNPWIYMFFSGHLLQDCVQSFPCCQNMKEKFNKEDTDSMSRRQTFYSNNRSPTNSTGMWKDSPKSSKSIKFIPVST

[4] = molecular target: T2, Acetylcholinesterase (AChE) (Homo sapiens, UniProt P22303); assay: SAFETYscan Enzymatic assay; type: biochemical
T2 construct: purchased R&D Systems
T2 sequence (P22303 32-614): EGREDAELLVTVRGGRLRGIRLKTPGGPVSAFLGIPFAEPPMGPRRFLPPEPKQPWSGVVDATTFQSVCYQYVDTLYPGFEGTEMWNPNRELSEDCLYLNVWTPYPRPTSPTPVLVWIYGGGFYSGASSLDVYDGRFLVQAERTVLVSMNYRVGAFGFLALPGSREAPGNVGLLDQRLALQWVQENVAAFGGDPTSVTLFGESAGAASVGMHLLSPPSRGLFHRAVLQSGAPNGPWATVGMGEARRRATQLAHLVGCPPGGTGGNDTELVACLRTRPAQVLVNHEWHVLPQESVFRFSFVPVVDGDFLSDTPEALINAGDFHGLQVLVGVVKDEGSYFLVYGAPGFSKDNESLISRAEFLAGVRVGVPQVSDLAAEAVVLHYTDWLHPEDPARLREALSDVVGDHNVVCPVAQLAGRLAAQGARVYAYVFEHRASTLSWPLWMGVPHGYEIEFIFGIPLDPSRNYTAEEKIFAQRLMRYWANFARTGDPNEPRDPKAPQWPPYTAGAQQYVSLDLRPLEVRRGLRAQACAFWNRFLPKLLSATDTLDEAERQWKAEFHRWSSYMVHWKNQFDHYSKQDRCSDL

[5] = tested on: neurons from the spinal cord; assay: Spinal cord neuron survival; type: cell-based, rat; conditions: in the presence of HU-MCA-13; 48 h in culture
Procedure: We also examined whether HU-MCA-13 would promote the survival of neurons from the spinal cord, by counting the number of neurons remaining after 48 h in culture. From our counts we estimated that 58 ± 10% of the neurons present at 3 h after plating survived for 48 h in the presence of HU-MCA-13, compared with only 35 ± 5% for neurons cultured without HU-MCA-13.
Spinal cords were isolated from adult rats (4–6 months old), and the meninges were removed from the spinal cord. The spinal cord was then cut into small pieces and collected in cold Hibernate A (Brainbits, Springfield, IL, USA), glutamine (0.5 mM), and B27 (Invitrogen, Carlsbad, CA). Briefly, dissected pieces of adult rat spinal cord tissue were maintained in phosphate-buffered saline (PBS) without Ca^2+ and Mg^2+ and pooled together and transferred to an enzymatic dissociation media containing 20 IU/ml papain in Earle’s balanced salt solution (Worthington Biochemical, Freehold, NJ) and incubated for 30 min at 37 °C. […] Neurite outgrowth was measured and presented as mean length of a neurite (microns). To measure neuronal survival, 450 cells were counted in 10 randomly chosen microscope fields of a known area in each of the three dishes per condition using a 20× objective and phase-contrast optics. […]

[6] = molecular target: Cholecystokinin Receptor A (CCKAR) (Homo sapiens, UniProt P32238); assay: SAFETYscan GPCR Calcium Flux; type: cell-based; conditions: read-out: RC50 (the source's name)
Sequence of Cholecystokinin Receptor A (CCKAR) (P32238 whole entry): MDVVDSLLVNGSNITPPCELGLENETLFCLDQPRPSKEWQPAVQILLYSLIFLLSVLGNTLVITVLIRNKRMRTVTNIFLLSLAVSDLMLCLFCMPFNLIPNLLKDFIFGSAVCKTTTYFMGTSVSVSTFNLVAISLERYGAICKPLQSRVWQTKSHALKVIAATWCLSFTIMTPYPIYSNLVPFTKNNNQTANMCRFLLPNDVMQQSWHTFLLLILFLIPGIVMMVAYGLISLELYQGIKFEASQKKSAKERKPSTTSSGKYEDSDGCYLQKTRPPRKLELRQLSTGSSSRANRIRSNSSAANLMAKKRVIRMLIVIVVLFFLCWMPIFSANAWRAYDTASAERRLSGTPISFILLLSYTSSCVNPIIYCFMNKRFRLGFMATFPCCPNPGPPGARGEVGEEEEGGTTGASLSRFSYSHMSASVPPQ

[7] = tested on: PGE2 production in PC12 cells; assay: PGE2 production measured by ELISA; conditions: different concentrations of HU-MCA-13, dose-dependent; 24 h
[8] = molecular target: T3, Insulin Receptor (tyrosine kinase) (INSR) (Homo sapiens, UniProt P06213); assay: SAFETYscan KINOMEscan binding assay; conditions: Inhibitor
T3 construct: host or cells: E. coli BL21-derived host (T7 phage) or HEK-293
T3 sequence (P06213 28-1382): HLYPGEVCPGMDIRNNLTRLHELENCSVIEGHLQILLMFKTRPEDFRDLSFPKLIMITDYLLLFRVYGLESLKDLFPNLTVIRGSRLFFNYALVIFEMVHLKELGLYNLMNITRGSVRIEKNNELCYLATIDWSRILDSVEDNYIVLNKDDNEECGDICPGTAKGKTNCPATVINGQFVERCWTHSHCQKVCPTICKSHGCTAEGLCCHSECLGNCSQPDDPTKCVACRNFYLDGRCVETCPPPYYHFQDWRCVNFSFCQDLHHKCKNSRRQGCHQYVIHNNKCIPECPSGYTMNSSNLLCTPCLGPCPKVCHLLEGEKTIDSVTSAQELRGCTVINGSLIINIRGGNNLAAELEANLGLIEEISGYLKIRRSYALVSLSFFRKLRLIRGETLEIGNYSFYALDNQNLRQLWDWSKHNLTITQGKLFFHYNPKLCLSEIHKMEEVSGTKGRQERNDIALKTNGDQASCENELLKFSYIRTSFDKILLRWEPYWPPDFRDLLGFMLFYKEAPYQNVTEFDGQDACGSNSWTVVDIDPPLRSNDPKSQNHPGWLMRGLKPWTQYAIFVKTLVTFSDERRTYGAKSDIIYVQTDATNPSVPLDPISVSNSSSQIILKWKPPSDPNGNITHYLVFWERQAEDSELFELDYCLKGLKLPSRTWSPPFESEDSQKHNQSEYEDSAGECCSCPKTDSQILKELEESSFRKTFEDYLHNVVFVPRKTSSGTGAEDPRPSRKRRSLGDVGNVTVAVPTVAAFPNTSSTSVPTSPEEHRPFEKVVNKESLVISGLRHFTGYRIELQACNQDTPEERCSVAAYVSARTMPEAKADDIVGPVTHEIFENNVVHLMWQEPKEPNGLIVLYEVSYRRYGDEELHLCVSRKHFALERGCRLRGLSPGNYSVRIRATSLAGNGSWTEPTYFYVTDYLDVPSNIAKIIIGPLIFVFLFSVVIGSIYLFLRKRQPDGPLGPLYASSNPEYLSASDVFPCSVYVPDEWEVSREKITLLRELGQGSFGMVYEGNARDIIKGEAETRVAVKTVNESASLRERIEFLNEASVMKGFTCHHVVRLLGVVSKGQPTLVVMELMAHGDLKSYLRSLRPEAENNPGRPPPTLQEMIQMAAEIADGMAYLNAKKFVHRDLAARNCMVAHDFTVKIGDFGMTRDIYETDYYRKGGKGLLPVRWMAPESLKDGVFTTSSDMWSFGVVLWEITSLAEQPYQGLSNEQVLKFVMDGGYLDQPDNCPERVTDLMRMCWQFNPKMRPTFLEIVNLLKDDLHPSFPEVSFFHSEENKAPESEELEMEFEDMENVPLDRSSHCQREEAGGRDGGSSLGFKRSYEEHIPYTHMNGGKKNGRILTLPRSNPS

[9] = molecular target: Muscarinic acetylcholine Receptor M3 (CHRM3) (Homo sapiens, UniProt P20309); assay: cell-based; conditions: Calcium Flux, read-out: RC50 (the source's name)
Sequence of Muscarinic acetylcholine Receptor M3 (CHRM3) (P20309 whole entry): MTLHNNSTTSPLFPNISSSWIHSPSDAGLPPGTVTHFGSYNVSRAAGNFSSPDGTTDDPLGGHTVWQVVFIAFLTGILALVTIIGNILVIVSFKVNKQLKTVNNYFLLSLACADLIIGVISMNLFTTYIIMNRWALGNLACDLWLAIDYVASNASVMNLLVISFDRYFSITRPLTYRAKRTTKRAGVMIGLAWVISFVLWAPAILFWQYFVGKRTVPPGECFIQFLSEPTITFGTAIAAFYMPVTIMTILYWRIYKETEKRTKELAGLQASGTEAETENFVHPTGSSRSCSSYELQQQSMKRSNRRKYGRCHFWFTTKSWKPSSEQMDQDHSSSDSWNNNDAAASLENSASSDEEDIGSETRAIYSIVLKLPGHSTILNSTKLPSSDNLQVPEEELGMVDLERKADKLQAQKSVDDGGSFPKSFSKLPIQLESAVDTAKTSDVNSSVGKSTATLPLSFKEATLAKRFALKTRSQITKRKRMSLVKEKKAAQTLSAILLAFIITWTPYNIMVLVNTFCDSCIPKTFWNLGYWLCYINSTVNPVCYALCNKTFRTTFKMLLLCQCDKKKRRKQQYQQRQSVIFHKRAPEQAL

[10] = molecular target: T4, Muscarinic acetylcholine Receptor M2 (CHRM2) (Homo sapiens, UniProt P08172); assay: SAFETYscan GPCR cAMP; type: cell-based
T4 construct: host or cells: cAMP Hunter cell lines
T4 sequence (P08172 whole entry): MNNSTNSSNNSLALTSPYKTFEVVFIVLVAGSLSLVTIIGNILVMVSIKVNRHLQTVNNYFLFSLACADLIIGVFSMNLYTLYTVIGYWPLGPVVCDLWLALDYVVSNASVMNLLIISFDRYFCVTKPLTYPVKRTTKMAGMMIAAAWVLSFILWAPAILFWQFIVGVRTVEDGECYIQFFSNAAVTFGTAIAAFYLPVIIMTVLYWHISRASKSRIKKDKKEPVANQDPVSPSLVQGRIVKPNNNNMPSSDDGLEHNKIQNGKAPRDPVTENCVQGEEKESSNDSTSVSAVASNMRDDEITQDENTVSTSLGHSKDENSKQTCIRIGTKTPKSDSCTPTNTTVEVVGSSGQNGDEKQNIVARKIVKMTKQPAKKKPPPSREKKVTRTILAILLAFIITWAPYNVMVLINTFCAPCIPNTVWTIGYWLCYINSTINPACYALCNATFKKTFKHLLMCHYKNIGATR

[11] = molecular target: Kv7.1/KCNE Potassium voltage-gated channel (KvLQT1/minK) (Homo sapiens, UniProt P51787); assay: SAFETYscan Ion channel assay; type: cell-based; conditions: read-out: RC50 (the source's name)
[12] = molecular target: T5, Rho Associated Coiled-Coil Containing Protein Kinase 1 (serine-threonine kinase) (ROCK1) (Homo sapiens, UniProt Q13464); assay: SAFETYscan KINOMEscan binding assay; conditions: Inhibitor
T5 construct: host or cells: E. coli BL21-derived host (T7 phage) or HEK-293

[13] = tested on: adult rat spinal cord primary cultures; assay: Spinal cord neurons neurite outgrowth assay; type: cell-based; conditions: 10 μM HU-MCA-13
Procedure: To study the effect of HU-MCA-13 on adult rat spinal cord primary cultures in vitro, we developed a purification procedure that yields enriched different types of spinal cord neuronal cultures. This neurotropic assay was performed using vehicle 1% DMSO in DMEM as control and 10 μM HU-MCA-13. The results in Figure 1 bottom row and Figure 3D clearly indicate that in control there was very poor spontaneous neurite outgrowth of a total length of about 180 μm and NGF induced neurite outgrowth to a total length of about 800 μm. Similarly, HU-MCA-13 induced a neurite outgrowth of 600 μm. Figure 2B indicates cytoskeletal-tubulin protein expression in the cultured neurons. These findings further extend the neurotropic effect of HU-MCA-13 to spinal cord neurons, in addition to DRGs and PC12 cells.
Spinal cords were isolated from adult rats (4–6 months old), and the meninges were removed from the spinal cord. The spinal cord was then cut into small pieces and collected in cold Hibernate A (Brainbits, Springfield, IL, USA), glutamine (0.5 mM), and B27 (Invitrogen, Carlsbad, CA). […] Neurite outgrowth was measured and presented as mean length of a neurite (microns). To measure neuronal survival, 450 cells were counted in 10 randomly chosen microscope fields of a known area in each of the three dishes per condition using a 20× objective and phase-contrast optics. […]

[14] = molecular target: T6, Adrenergic Receptor β1 (ADRB1) (Homo sapiens, UniProt P08588); assay: SAFETYscan GPCR cAMP; type: cell-based; conditions: read-out: RC50 (the source's name)
T6 construct: host or cells: cAMP Hunter cell lines
T6 sequence (P08588 whole entry): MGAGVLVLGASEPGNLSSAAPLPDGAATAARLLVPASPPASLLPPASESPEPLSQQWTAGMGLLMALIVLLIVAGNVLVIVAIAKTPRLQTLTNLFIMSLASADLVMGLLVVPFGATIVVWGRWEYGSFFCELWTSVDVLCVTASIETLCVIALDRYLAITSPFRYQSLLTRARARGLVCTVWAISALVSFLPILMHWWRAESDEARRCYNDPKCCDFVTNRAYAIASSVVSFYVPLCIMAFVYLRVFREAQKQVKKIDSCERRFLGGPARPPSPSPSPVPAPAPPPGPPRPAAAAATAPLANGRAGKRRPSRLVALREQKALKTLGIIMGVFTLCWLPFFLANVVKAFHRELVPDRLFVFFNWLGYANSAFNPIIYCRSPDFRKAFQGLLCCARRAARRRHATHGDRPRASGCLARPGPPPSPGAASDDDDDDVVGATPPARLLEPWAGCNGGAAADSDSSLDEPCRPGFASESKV

[15] = molecular target: T7, N-methyl-D-aspartate (NMDA) Glutamate Receptor 1A/2B (NMDAR (1A/2B)) (Homo sapiens, UniProt Q05586+Q13224); assay: SAFETYscan Ion channel assay; type: cell-based
T7 construct: host or cells: unnamed DiscoverX cell line

[16] = 10 μM, read-out: MCA-13 Max. Responce
[17] = read-out: RC50 (the source's name)

T1 sequence (P21554 whole entry): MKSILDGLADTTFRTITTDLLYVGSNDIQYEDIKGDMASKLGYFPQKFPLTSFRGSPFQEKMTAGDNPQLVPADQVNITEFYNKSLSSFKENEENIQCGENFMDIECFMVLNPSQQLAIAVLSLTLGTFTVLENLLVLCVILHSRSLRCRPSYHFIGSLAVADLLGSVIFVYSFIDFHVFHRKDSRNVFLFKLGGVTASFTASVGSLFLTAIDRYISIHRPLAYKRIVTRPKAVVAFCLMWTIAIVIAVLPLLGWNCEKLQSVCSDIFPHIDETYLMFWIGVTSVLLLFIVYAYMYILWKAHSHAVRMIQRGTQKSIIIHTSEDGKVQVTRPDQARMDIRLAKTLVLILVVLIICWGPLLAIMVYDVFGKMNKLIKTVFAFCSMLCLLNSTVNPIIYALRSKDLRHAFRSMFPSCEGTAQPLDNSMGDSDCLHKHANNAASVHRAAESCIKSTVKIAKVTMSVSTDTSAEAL

C=CCC1CCCC(CCC(=O)O)C1=C (centres unmarked) [HU-MCA-13, 3-(3-allyl-2-methylenecyclohexyl)propanoic acid]
58 ± 10%: neurons present at 3 h after plating that survived for 48 h [5]
21.6%: inhibition at 10 µM [12, 16]
600 μm: neurite outgrowth total length [13]
> 10 µM: EC50 [1] | IC50 [1] | IC50 [2] | EC50 ([3]; Agonist) | IC50 ([3]; Antagonist) | IC50 [4] | EC50 ([6]; Agonist) | IC50 ([6]; Antagonist) | IC50 [8, 17] | EC50 ([9]; Agonist) | IC50 ([9]; Antagonist) | EC50 [10] | IC50 [10] | IC50 ([11]; Blocker) | EC50 ([11]; Opener) | IC50 [12, 17] | EC50 ([14]; Agonist) | IC50 ([14]; Antagonist) | EC50 [15] | IC50 [15]
3.22%: inhibition at 10 µM [8, 16]
3–6 fold: increase of PGE2 production over control, untreated cultures [7]
4.27%: inhibition at 10 µM ([4]; 10 μM, Inhibitor, Enzymatic, read-out: MCA-13 Max. Responce)
